Assay: Human HepG2 cell viability assay in 384 well format
Type: toxicity, cell-based
Design: dose 125 nL, time 70.5 hour; cytotoxicity at 70.5 h: concentration not given beside the values
Details: HepG2 cells, read-out: Inhibition

Row | SMILES | cytotoxicity at 70.5 h
1 | CN(C)C[C@@H]1CN(C(=O)c2cc(F)ccc2F)C[C@@H]1CO | -5.47%
2 | NC(=O)c1ccc(NC(=O)c2ccncc2F)cn1 | 10.3%
3 | CSC(C)C(=O)N(C)CC(=O)Nc1ccc(Br)cn1 (stereo unspecified) | -3.72%
4 | Cc1oc(-c2cccs2)nc1C(=O)N(C)C1(C#N)CCC1 | -17.6%
5 | CSc1cc2c(cc1NC(=O)NCc1ccco1)OCCO2 | -5.54%
6 | O=C1CCCN1CCCN1CCCC(Cn2cncn2)C1 (stereo unspecified) | 3.37%
7 | CCC1(CO)CCCN(C(=O)c2ccc(N3CCN(C)CC3)cc2)C1 (stereo unspecified) | -4.46%
8 | CCn1c(N)nc2cc(C(=O)NCCc3sccc3C)cnc21 | -4.44%
9 | Cc1ccc(C(=O)N2CCn3c(COCC4CC4)cnc3C2C)s1 (stereo unspecified) | -4.86%
10 | CC(C)CC(=O)N1CCC(Nc2nc(O)cc(-c3ccsc3)n2)CC1 | 11.2%
11 | Cc1cc(C(C)NC(=O)c2c[nH]c(=O)c(Cl)c2)c(C)o1 (stereo unspecified) | -1.21%
12 | Cc1csc(Nc2cc(C3CN(c4ccncn4)C3)nc(C)n2)n1 | -8.67%
13 | COc1cccc(S(=O)(=O)NC(=O)c2c(C)noc2C(C)C)c1 | -3.75%
14 | COCCn1ccnc1-c1cc(CN2CCCCC2)cs1 | 33.9%
15 | COc1ccc(C(=O)N2Cc3c(Cn4ccnc4)nn(C)c3C2)cc1 | -8.74%
16 | CNC(=O)CCN1CCC(c2nnc(Cn3cccn3)n2C2CC2)CC1 | -8.33%
17 | Cc1ccccc1OCCCC(=O)NCc1ccnc(O)c1 | -11.5%
18 | N#Cc1cccc(CN(CCO)Cc2ccsc2)c1 | -20.4%
19 | CS(=O)(=O)N1CCCC12CCCN(C(=O)c1cc(F)cc(F)c1)C2 (stereo unspecified) | -11.7%
20 | CCSCc1cccc(NC(=O)N(C)Cc2ncnn2C)c1 | -3.07%
21 | CCCN1CCCn2nc(CNS(=O)(=O)c3cccc(F)c3)cc2C1 | -5.1%
22 | Fc1cccc(CN2CCO[C@H]3[C@@H](OCc4ccccn4)CC[C@@H]32)c1 | -15.5%
23 | CCC[C@H]1CN(CCS(C)(=O)=O)C[C@@H]1NC(=O)c1cc[nH]n1 | -16%
24 | Cn1cnc(-c2cc(C(=O)N3CCOCC3)c3ccccn23)c1 | -31.4%

Row | SMILES | cytotoxicity at 70.5 h
25 | COc1cccc(CCC2CCCN(Cc3ncc[nH]3)C2)c1 (stereo unspecified) | 29.4%
26 | Cc1ccoc1C(=O)N1CCO[C@H]2[C@H](OCc3ccncc3)CC[C@@H]21 | -0.105%
27 | Cc1cn2c(n1)CCC(NC(=O)Cn1cncn1)C2 (stereo unspecified) | -5.67%
28 | CCCOc1ccc(CNc2cncc(-n3cccn3)n2)cc1 | -6.6%
29 | CCC(CO)N(Cc1ccco1)C(=O)c1cccnc1NC (stereo unspecified) | -2.71%
30 | Cc1csc(N(C)C(=O)C2CC(=O)N(c3ccccc3F)C2)n1 (stereo unspecified) | -0.144%
31 | CO[C@H]1CN(C(=O)c2ccc3c(c2)OCO3)[C@@H]2COC[C@H]12 | 0.574%
32 | Oc1cc(CC2COCCN(CC3(O)CCOCC3)C2)ncn1 (stereo unspecified) | 23%
33 | CC(=O)N1CCCN(C(=O)c2ccc(=O)n(C)c2)c2ccccc21 | -2.79%
34 | Cc1ccccc1C1(CNC(=O)CCN2C(=O)CCC2=O)CC1 | -12.8%
35 | O=C(NCc1cccs1)C1CN(C(=O)c2cccs2)CC12CCOCC2 (stereo unspecified) | -8.67%
36 | O=C(O)c1ccc(OC2CCOCC2)cc1 | -3.72%
37 | N#Cc1ccccc1OCCN1CCCCC1Cn1cncn1 (stereo unspecified) | -7.56%
38 | CNC(=O)[C@@H]1CN(C(=O)C(C)C)C[C@H]1c1ccnc(N2CCCC2)n1 | -3.61%
39 | Cc1cc(N(C)Cc2cc(C(C)(C)C)n[nH]2)nc(-c2cccnc2)n1 | 41.6%
40 | CCCn1ncc(CN2CCCC(C(=O)c3ccc(SC)cc3)C2)c1C (stereo unspecified) | -9.31%
41 | O=C1CCCN1CCCC(=O)N1CCCCC1c1ccc(F)cc1 (stereo unspecified) | 2.07%
42 | Cn1c(Nc2cn[nH]c2)c(C#N)c(=O)n(C)c1=O | 11.5%
43 | CCN(Cc1ccncc1)Cc1cn(-c2ccccc2)nn1 | -10.2%
44 | O=C1CCC2(CCCN(c3ncc(F)cn3)CC2)N1Cc1ccccc1 (stereo unspecified) | 1.63%
45 | Cn1ccnc1CN1CCc2c(COCC3CC3)nn(C)c2C1 | -6.3%
46 | CCc1nccn1C1CCCN(C(=O)c2ccc(NC3CC3)nc2)C1 (stereo unspecified) | -2.23%
47 | CCC(C(=O)N(C)C)n1ccc2ncccc2c1=O (stereo unspecified) | -13.2%
48 | CC(C)Oc1ccc(CNC(=O)CCN2C(=O)CCC2=O)cc1F | -3.49%

Row | SMILES | cytotoxicity at 70.5 h
49 | CCC1CN(c2cnn(C)c(=O)c2Br)CCO1 (stereo unspecified) | -1.58%
50 | CN(C)C(=O)C1CN(Cc2nccs2)CCN(S(C)(=O)=O)C1 (stereo unspecified) | -4.9%
51 | COCCCC1CCCCN1Cc1cn2cc(C)ccc2n1 (stereo unspecified) | -25.8%
52 | c1ccc(C2CCCN(c3ncnc4c3CCNC4)CC2)cc1 (stereo unspecified) | 2.81%
53 | CCCN1CCCC2(CCN(c3nccc(OC)n3)C2)C1=O (stereo unspecified) | 2.5%
54 | O=C(O)CNC(=O)Cc1csc(-c2ccccc2F)n1 | 18.6%
55 | Cc1ccc(CC2COc3ccccc3C2)c(N)n1 (stereo unspecified) | 16.3%
56 | O=C(O)Cn1nc(C2CC2)c2c(-c3ccc(F)cc3)ccnc21 | -10.6%
57 | CN(CC1CCOC1)c1ncc(Br)cn1 (stereo unspecified) | -3.89%
58 | CC(NCCCN1CCCC1=O)c1ccc(F)cc1N(C)C (stereo unspecified) | -4.56%
59 | Cc1cnn(CC2CCCCN2C(=O)c2n[nH]c3ccccc23)c1 (stereo unspecified) | 16%
60 | O=C1CCC(C(=O)NCCOc2ccccc2-c2ccccc2)CN1 (stereo unspecified) | -13.3%
61 | O=C(Cc1ccc2c(c1)CCO2)N1CCCC1Cn1cccn1 (stereo unspecified) | -4.67%
62 | CCCc1n[nH]c(C2CN(C(=O)c3ccco3)CCO2)n1 (stereo unspecified) | -10.8%
63 | CCOc1nc2cnccc2n(CC(=O)Nc2ccccc2OC)c1=O | -7.54%
64 | CC(C(=O)N1CCCN(Cc2ccc(C#N)cc2)CC1)n1ccnc1 (stereo unspecified) | 0.793%
65 | CCc1noc(C(C)N(C)Cc2cc(Br)ccc2OC)n1 (stereo unspecified) | -15.2%
66 | CS(=O)(=O)N[C@@H]1CN(C(=O)c2cnccn2)[C@@H]2CCCO[C@@H]21 | 29.4%
67 | Cc1nc(NC(=O)N2CCCC(C(F)(F)F)C2)nn1C (stereo unspecified) | -8%
68 | Cc1nc(C)n(CC2CCCCN2CC(=O)Nc2nncs2)n1 (stereo unspecified) | -1.06%
69 | CCS(=O)(=O)NCC1CCN(c2cnccn2)CC1 | -6.43%
70 | CCN1CCN(c2ccc(CNC(=O)Cc3c(C)noc3C)cn2)CC1 | -10.4%
71 | CN(Cc1ccco1)C(=O)CN1CCOC(Cn2cncn2)C1 (stereo unspecified) | -3.13%
72 | CNC(=O)N1CCc2cc(C(=O)NCC3CC3)c(NC(C)C)nc2CC1 | -7.34%

Row | SMILES | cytotoxicity at 70.5 h
73 | CCc1noc(CN2CCN(C(=O)N(CC)CC)CC2)n1 | -10%
74 | CC(=O)NC(CC(=O)Nc1nc(C)c(C)s1)c1ccccc1 (stereo unspecified) | 0.551%
75 | CNC(=O)COc1ccc(CNc2cncc(-n3cccn3)n2)cc1 | -16.8%
76 | CCOc1cccc(NCc2cnc(N3CCN(C)CC3)nc2)n1 | 3.56%
77 | Cc1noc(C)c1C(=O)NCCN1CCOCC1 | 1.59%
78 | Cc1ccc(S(=O)(=O)NC(=O)c2cccc(OCC(N)=O)c2)s1 | -3.78%
79 | CCCOC(=O)N1CCCC(c2nnc(CN3CCOCC3)n2C)C1 (stereo unspecified) | 2.16%
80 | COC(=O)CN(CC1CCOC1)C1CC1 (stereo unspecified) | -3.42%
81 | COc1ccccc1CNC(=O)C[S+]([O-])Cc1cc(C)on1 (stereo unspecified) | -3.68%
82 | Cc1ccc2c(ccn2CCC(=O)N2CCC(C(N)=O)CC2)c1 | -21.3%
83 | CN(CCn1cccn1)S(=O)(=O)c1cccc(F)c1C#N | -9.35%
84 | Cc1cnn(CC2CN(Cc3nc4ccccc4o3)CCO2)c1 (stereo unspecified) | -12.1%
85 | CCOc1cc(C)nc(N2CCN(C(=O)c3cscn3)CC2)n1 | -4.61%
86 | CC(C)Oc1ccc(CC2=N[C@](C)(CO)CO2)cc1 | 21.4%
87 | CN(C)c1cc(CNC(=O)NCC2(C)CCCS2)ccn1 (stereo unspecified) | 10.1%
88 | Cc1nc(CN(C)c2nccc(N(C)C)n2)cs1 | -0.0733%
89 | Fc1ccc(NCc2ncc[nH]2)cc1Br | -7.28%
90 | CCC(C)(CC(=O)OC)NC(=O)c1ccc(C(C)=O)cc1 (stereo unspecified) | 23.7%
91 | Nc1ncc(C(=O)N2CCC(O)(CO)CC2)c(-c2ccccc2)n1 | -15.6%
92 | CN(Cc1nccn1C)C1CCCN(Cc2noc(C3CC3)n2)C1 (stereo unspecified) | 15.8%
93 | Cc1nc(C2CCCN2CCCc2nc3ccccc3o2)no1 (stereo unspecified) | -1.3%
94 | CC(C)N1CCc2onc(Cn3cccc3)c2C1 | -2.22%
95 | COc1ncc(C(=O)N(Cc2cnn(C)c2)C(C)C)cn1 | -7.11%
96 | O=C(c1cnccn1)N1CCO[C@H]2[C@H](OCc3cccnc3)CC[C@@H]21 | -6.93%

Row | SMILES | cytotoxicity at 70.5 h
97 | CO[C@@H]1CCN(Cc2ccoc2)C[C@@H]1Cc1ccccc1 | 1.1%
98 | COC(=O)c1ncccc1N1CCCCC1 | -6.28%
99 | O=C(c1nnn(-c2ccc(F)cc2)n1)N1CCC(O)CC1 | 2.17%
100 | CS(=O)(=O)NCc1cncc2c1CCN(CC1CCOC1)C2 (stereo unspecified) | 2.49%
101 | CN(C)C(=O)C1CCCN1CCCNC(=O)c1cccc2[nH]ncc12 (stereo unspecified) | 12.2%
102 | NC(=O)c1noc(Cn2ncc3ccccc3c2=O)n1 | 12.9%
103 | O=c1[nH]cccc1-c1nccc(C2(c3ccccc3Cl)CCNCC2)n1 | 29.1%
104 | Cc1nn(C)c(NC(=O)C2SCCc3ccccc32)c1C (stereo unspecified) | 0.91%
105 | O=C(c1ccnnc1)N1C[C@@H]2C[C@@H](c3nc(C4CC4)cs3)O[C@@H]2C1 | -3.56%
106 | CSC(C)C(=O)NCc1ccc(-n2cncn2)nc1 (stereo unspecified) | -10.2%
107 | COc1ccc(Br)cc1Cn1nc(C(N)=O)ccc1=O | -6.15%
108 | c1ccc(N2CCN(Cc3cnc(C4CCCCO4)nc3)CC2)cc1 (stereo unspecified) | 4.6%
109 | COCCN(Cc1nccs1)C(=O)c1cc(-c2ccc(C)o2)n[nH]1 | -11.2%
110 | CCOc1ncccc1CNC(=O)N1CCCC1c1cccs1 (stereo unspecified) | -11.7%
111 | COc1ccc(CN2CCc3nc4ccsc4c(=O)n3CC2)c(C)c1C | 39.8%
112 | O=C(NCCCNC(=O)c1cccc(O)c1)NCc1ccccc1F | -9.83%
113 | CCc1cc(N[C@@H]2C[C@H]3CC[C@@H]2C3)n2nccc2n1 | -6.76%
114 | c1csc(CCC2CCCCN2Cc2noc(C3CC3)n2)c1 (stereo unspecified) | -13%
115 | CN(C)C(=O)CN1CC[C@@H]2O[C@@H](COCc3cccnc3)CC[C@@H]21 | -1.43%
116 | Cn1ccnc1CN1CCCN(C(=O)c2ccc3c(c2)COC3)CC1 | 5.68%
